These results are taken from a melting point compilation (Tetko et al.; mined from patent text by program, amines drawn as free bases though some values may be those of a salt).

Where only a bound is given, the exact number is not on record here.

With `NC(=O)c1cc(NCc2ccc(Cl)cc2)c([N+](=O)[O-])cc1[N+](=O)[O-]`, the melting point (in general, the temperature of the solid-liquid transition) is 207 to 210 °C.

On to `CCOC(=O)Cc1sc(NC(C)=O)nc1-c1ccc(Cl)cc1`, for which the melting point was in the range of 187 to 188 °C.

For the compound `COC(=O)c1cc2cc3[nH]c(=O)oc3cc2[nH]1`, the melting point fell in the range of 267 to 277 °C.

With `CC(C)(C)OC(=O)N1CCN(c2ccc3[nH]cc(Sc4ccccc4)c3c2)CC1`, the melting point was found to be 174 °C.

Take `CCCOc1ccccc1C1=NC(=O)C2=NC(C)=NC2=N1`: the melting point lay in the range of 264 to 265 °C.

For the compound `COCCNC(=O)c1cc(-c2ccccc2)c(=O)n2ccc3ccsc3c12`, the melting point was 201 to 202 °C.

As to `CCCN(CCC)c1nc(C#N)c(C#N)nc1CC`, the melting point fell in the range of 58 to 60 °C.

As to `N[C@H]1CC[C@@H](C(=O)N2CCC(c3[nH]nc4c3C(=O)c3c(NC(=O)NN5CCOCC5)cccc3-4)CC2)CC1`, the melting point lay within 202 to 204 °C.

Compound `Cc1c(C=C(C#N)C#N)cc(C(C)(C)C)c(O)c1Br` returned a melting point of 144 °C.

Compound `Oc1ccccc1C=Cc1nc2ccccc2s1` gave a melting point of 235 to 236 °C.

`CCC1(NC(=O)C(Br)CCl)COCOC1` (stereo not given) yielded a melting point of 95 to 109 °C.

`CC(Br)c1ncnc(Sc2ccc(Cl)cc2)c1F` (stereo not given) showed a melting point of 86.2 to 87.5 °C.

Regarding `COc1ccc(-c2cc3ccc(OC)cc3[nH]2)cc1`, the melting point fell in the range of 228 to 230 °C.

The compound `CC(C)Cc1cc(C(=O)N2CCN(CC(C)C)CC2)ccc1OCc1ccc(F)cc1` registered a melting point of 77 to 78 °C.

Consider `CCOC(=O)c1ccc(OC(=O)c2cccc(C(=O)Oc3ccc(C(=O)OCC)cc3)c2)cc1`, for which the melting point was in the range of 123 to 125 °C.

Turning to `CN1CCC(c2c[nH]c3ccc(NC(=O)c4cccc(F)c4)nc23)CC1`, the melting point fell in the range of 129 to 130 °C.

Consider `CC(=O)NCCNc1nc(Nc2ccc(Cl)cc2)ncc1[N+](=O)[O-]`, for which the melting point was 224 to 226 °C.

Regarding `Cn1cc(Sc2ccccc2)c(=O)c(-c2cccc(C(F)(F)F)c2)c1`, the melting point was 164 to 165 °C.

As to `Cc1ccc2nc(C)c(C3=NNC(=O)CO3)n2c1`, the melting point worked out at 313 °C.

Turning to `CN(C)CCCn1c2ccc(O)cc2c2c3c(c(-c4ccccc4)cc21)C(=O)NC3=O`, the melting point was in the range of 185 to 189 °C.

Regarding `CC(=O)Nc1cccc2c(Br)ccc(C)c12`, the melting point lay in the range of 227 to 229 °C.

In turn, `CCOc1cc(OCCCc2cn(-c3ccc(C(F)(F)F)cn3)nc2O)ccc1CCC(=O)O` showed a melting point of 192 to 194 °C.

`C[C@]1(CN2CCCc3ccccc32)Cn2cc([N+](=O)[O-])nc2O1` returned a melting point of 168 to 172 °C.

`CCOC(=O)C(C(C)=O)=C(N)C(F)(F)F` yielded a melting point of 63 to 65 °C.

Take `Cc1ccccc1-c1cn(C)cc(-c2ccccc2Cl)c1=O`: the melting point lay within 87 to 91 °C.

For the compound `CCOC(=O)C1=C(C)NC(c2nccn2C)=NC1c1ccccc1Cl` (stereo not given), the melting point was in the range of 124 to 127 °C.

As for `O=C(O)c1c(-c2cccc([N+](=O)[O-])c2)oc2ncnc(O)c12`, the melting point was more than 300 °C.

Compound `COc1cc(N)c(Br)cc1C(=O)NC1CCN(CC2CCN(C(N)=O)CC2)CC1` came in with a melting point of 228 to 230 °C.

Consider `O=C(O)Cc1nn(Cc2nc3cc(O)cc(O)c3s2)c(=O)c2ccccc12`, for which the melting point was found to be 184 °C.

On to `O=[N+]([O-])c1cc(CN2CCN(C(c3ccccc3)c3ccccc3)CC2)ccc1Cl`, for which the melting point was 102 °C.

Turning to `CN(C)C(=S)SC(C[N+](=O)[O-])c1cccs1` (stereo not given), the melting point was in the range of 88 to 90 °C.

`Cn1c(=O)[nH]c2nc3ccc(OCCCC(=O)N4CCCCC4)cc3cc21`: the melting point is 215 to 217 °C.

The compound `CCOC(=O)Cc1c(C(=O)O)c(CC)c(C(=O)c2ccc(Cl)cc2)n1C` gave a melting point of 184 to 186 °C.

On to `Cc1ccsc1C1CC(=O)c2c(C)ccnc2C1` (stereo not given), for which the melting point is 104 to 105 °C.

Take `COc1ccc(Cl)cc1C(=O)Nc1ccc(CC(=O)O)cc1`: the melting point turned out to be 152 °C.

The compound `CC(C)(CO)c1ccc(C(=O)O)cc1` registered a melting point of 154 to 156 °C.

Turning to `Oc1c(Br)cc(Br)c2c(Cl)ncnc12`, the melting point is 198 to 199 °C.

`CCC(C)(C)c1ccc(OCCCC(=O)Nc2ccc(OC)c(NC(=O)CC(=O)C3(C)COC(C)(C)OC3)c2)c(C(C)(C)CC)c1` gave a melting point of 128 to 130 °C.

`Cc1cc(C)c(S(=O)(=O)OC[C@@H]2C[C@@H]2COS(=O)(=O)c2c(C)cc(C)cc2C)c(C)c1` came in with a melting point of 240 °C.

For the compound `O=C1NOCCN1c1ccc(Cl)c(Cl)c1`, the melting point is 152 °C.

For `Cc1c(NC(=O)c2ccc(-c3ccc(F)cc3)c(F)c2)ccc2cc(CN3CCCCC3)cnc12`, the melting point fell in the range of 161 to 162 °C.

Take `CCCCOc1ccc(S(N)(=O)=O)cc1`: the melting point was in the range of 99 to 101 °C.

The compound `NC(=O)CNC(=O)c1cccc(-c2cccc3cc(Cc4cccc(C(F)(F)F)c4)sc23)c1` returned a melting point of 147 to 148 °C.

`OC1CSC(Oc2cncc(-c3ccc(F)cc3F)c2)C(O)C1O` (stereo not given) yielded a melting point of 221 °C.

`O=C(CC1CSCCC1=O)c1ccc(F)cc1` (stereo not given): the melting point lay within 112 to 114 °C.

`CCCCOc1cc(C=C(C)C(=O)O)ccc1-c1cccc(CNCC(=O)c2ccccc2)c1` came in with a melting point of 166 °C.

Consider `COc1nc(C#N)c(C#N)n1C`, for which the melting point was 192 to 194 °C.

`N#CCCNC(=O)c1cccc(-c2ccc3c(c2)C(c2ccc(Cl)cc2Cl)CCO3)c1` (stereo not given) came in with a melting point of 154 to 155 °C.

On to `CC1(C)CCC(C)(C)c2ccccc21`, for which the melting point was 71 to 72 °C.

For the compound `O=C(NCC/C=C/CCCNC(=O)c1ccc(OC(F)F)cc1)c1ccc(OC(F)F)cc1`, the melting point fell in the range of 122 to 123 °C.

In turn, `COc1ccc(CN(C(=O)C2CCCc3c(O)cccc32)c2ccc(C(C)C)cc2)cn1` (stereo not given) yielded a melting point of 158 °C.

`COc1ccc(-c2cc(-c3ccccc3)[nH]c2C(=O)Nc2ccc(C(=O)NO)cc2)cc1` returned a melting point of 234 to 235 °C.

As to `Cc1[nH]c(=O)c(C#N)cc1-c1ccc2nccn2c1`, the melting point is more than 300 °C.

Take `CC(=O)OC1=C(c2ccc(C)cc2)Sc2cc(C)ccc2NC1=O`: the melting point was in the range of 233 to 235 °C.

Consider `COC(=O)CCc1oc(-n2ccnc2S(C)(=O)=O)nc1-c1ccc(Cl)cc1`, for which the melting point lay in the range of 112 to 113 °C.

In the case of `CCOC(=O)C1=C(c2ccc(OC)c(OC)c2)c2ccccc2C1=O`, the melting point was found to be 130 °C.

The compound `CC(=O)N1c2ccccc2NC(=O)c2cscc21` showed a melting point of 228 to 230 °C.

`Cc1cc(C(=O)c2[nH]c3ccc(Cl)cc3c2CC(=O)O)no1`: the melting point fell in the range of 253 to 255 °C.

The compound `O=C(O)c1ccccc1C(=O)Nc1cccc(-c2ccnc3c(C(=O)c4cccs4)cnn23)c1` yielded a melting point of 215 to 216 °C.

With `S=c1[nH]ccn1CCCc1cccs1`, the melting point lay within 94 to 96.5 °C.

In the case of `O=C1C(Cl)=C(C2CCC(c3ccc(Cl)cc3)CC2)C(=O)c2ccccc21` (stereo not given), the melting point lay within 172 to 175 °C.

Compound `O=c1[nH]c(CCN2CCCC(O)C2)cc2ccccc12` (stereo not given) came in with a melting point of 192 to 193 °C.

On to `O=C1c2ccccc2C(=O)c2c1cc(CO)c1c2CCC1`, for which the melting point fell in the range of 191 to 192 °C.

With `COc1cc(C2CCN(C[C@@H](C)O)CC2)ccc1Nc1ncc2ccc(-c3ccccc3OC)n2n1`, the melting point was 67 to 74 °C.

The compound `Cc1ccc(CCOCC(=O)O)cc1` gave a melting point of 65 to 67 °C.
